According to patent US20130158075A1, “HETEROCYCLIC COMPOUNDS AS DGAT1 INHIBITORS” (PIRAMAL ENTERPRISES LIMITED, priority 2010, published 2013):

Target: T1, hDGAT1 (Homo sapiens, UniProt O75907)
T1 construct: made in house; host or cells: Sf9 insect cells (baculovirus); microsomal fraction
T1 sequence (O75907 1-488): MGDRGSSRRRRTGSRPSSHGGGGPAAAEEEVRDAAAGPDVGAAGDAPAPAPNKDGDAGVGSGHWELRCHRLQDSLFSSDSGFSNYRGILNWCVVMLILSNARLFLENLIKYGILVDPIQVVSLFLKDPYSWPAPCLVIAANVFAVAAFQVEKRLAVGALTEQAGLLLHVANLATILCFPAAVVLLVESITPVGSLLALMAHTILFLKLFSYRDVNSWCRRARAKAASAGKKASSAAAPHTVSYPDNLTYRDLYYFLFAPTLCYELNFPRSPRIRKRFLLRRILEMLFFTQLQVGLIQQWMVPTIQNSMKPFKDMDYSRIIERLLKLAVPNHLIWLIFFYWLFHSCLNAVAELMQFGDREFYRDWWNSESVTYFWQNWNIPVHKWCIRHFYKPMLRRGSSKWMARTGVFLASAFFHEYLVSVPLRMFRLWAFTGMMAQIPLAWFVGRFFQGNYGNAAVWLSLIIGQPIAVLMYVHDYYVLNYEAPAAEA
Test: In-vitro DGAT1 assay with hDGAT1 microsomes from Sf9 cells (14C oleoyl CoA, scintillation counting)
Format: biochemical
Settings: at 1 μM
Procedure: Sf9 cells were grown in T25 flasks containing Graces's Insect media with 10% FBS with antibiotic (100 units/mL penicillin, 100 μg/mL streptomycin sulphate, 0.25 μg/mL Amptotericin B as Fungizone) grown in a 27° C. incubator.
hDGAT10RF expression clone (RZPDo839C09146 in pDEST vector) was obtained from RZPD, German Science Center for Genomes research, Germany. hDGAT1 bacmid DNA was obtained by transformation of the hDGAT1 expression clone into DH10Bac E. coli competent cells. Approximately 1 μg of hDGAT1 bacmid DNA was infected into Sf9 cells with Cellfectin (Invitrogen) reagent. Following infection, Sf9 cells were incubated at 27° C. for 30 min. Five hours after infection, the media was replaced with growth media containing antibiotics (100 units/mL penicillin, 100 μg/mL streptomycin sulphate, 0.25 μg/mL Amptotericin B as Fungizone) and incubated at 27° C. for 72 h. The supernatant containing the virus was centrifuged at 1500×g for 5 min, passed through 0.22 μm filter, and subsequently stored at 4° C. The virus was further amplified three more times by re-infection of Sf9 cells and the viral titer was determined by plaque assay.
Sf9 cells were seeded in spinner flasks on day 0 at a cell density of 1×10^6 and infected on day 1 with hDGAT1 baculovirus at a multiplicity of infection (MOI) of 5 and a cell density of 2×10^6. On day 3 (or 66-72 h), cells were harvested and centrifuged at 2500×g for 10 min. Pellet was resuspended in lysis buffer (100 mM sucrose, 50 mM KCl, 40 mM KH2PO4, 30 mM EDTA, pH 7.2) and passed through 21-gauge needle approximately 10 times. The mixture was centrifuged at 12,000 rpm in a Sigma 12158-H rotor at 4° C. for 30 min. The supernatant was subjected to centrifugation at 35,000 rpm in a Beckman Ti-45 rotor at 4° C. for 1 h. The resultant pellet containing the microsomes wasere resuspended overnight in 1 mL of lysis buffer and total protein concentration was estimated using Bradford Reagent. Microsomes were aliquoted and stored at −80° C.
Frozen aliquots of hDGAT1 containing microsomes were thawed (5-10 mg/mL total protein) on ice and diluted to a working stock of 1 mg/mL with DGAT Assay Buffer (DAB). The DGAT reaction assay was performed by following the procedure described in U.S. Pat. No. 6,607,893 with some modifications that are described below.
1 mL stock solution of DGAT1 substrate mixture contains 5.6 μL of ^14C oleoyl CoA (16.8 nCi) and […] of 1,2-dioleoyl-sn-glycerol (1228.5 μM) 1,2-dioleoyl-sn-glycerol stock (19.5 mM) was prepared by dissolving 25 mg of 1,2-dioleoyl-sn-glycerol (Sigma, US) in 2060 μL of acetone.
The assay was performed in duplicates in a reaction volume of 100 μL.
The reaction was started by the addition of 2.5 μL of 1 mg/mL of microsomes (iv) to the mixture of (i), (ii) and (iii), and incubated at 37° C. for 10 min. The reaction was stopped by the addition of 300 μL of Alkaline Ethanol Stop Solution Mix [AESSM; 12.5% of 100% non-denatured ethanol, 10% deionized water, 2.5% 1N NaOH, 75% stop solution (78.4% isopropanol, 19.6% n-heptane, 2% deionized water)] followed by addition of 600 μL of n-heptane. The mixture was vortexed and the triglycerides formed were extracted into the organic heptane phase. 250 μL of the heptane phase was added into 4 mL scintillation cocktail (66.72% toluene, 33.3% TritonX-100, 0.5% PPO, 0.02% POPOP) and counted on a liquid scintillation counter for 1 min. Data was collected and plotted as a function of concentration in nM versus percentage inhibition of hDGAT1 by the compounds of present invention.

Row | Compound | Percentage inhibition of hDGAT1
1 | CC(C)(CC(=O)O)Cc1ncc(-c2ccc(NC(=O)c3ccc(-c4ccccc4)cc3)cc2)s1 [Example 77, 4-(5-(4-Biphenyl-4-ylcarboxamidophenyl)thiazol-2-yl)-3,3-dimethylbutanoic acid] | ++ (>50 % Inhibition)
2 | COC(=O)C(C)(C)CCc1ncc(-c2ccc(NC(=O)Nc3ccc(F)cc3)cc2)s1 [Example 96, Methyl 4-(5-(4-(3-(4-fluorophenyl)ureido)phenyl)thiazol-2-yl-2,2-dimethyl butanoate] | ++ (>50 % Inhibition)
3 | CC(C)(CCc1ncc(-c2ccc(NC(=O)c3ccc(-c4ccccc4)cc3)cc2)s1)C(=O)O [Example 108, 4-(5-(4-Biphenyl-4-ylcarboxamidophenyl)thiazol-2-yl)-2,2-dimethylbutanoic acid] | ++ (>50 % Inhibition)
4 | CC(C)(Cc1ncc(-c2ccc(NC(=O)c3ccc(-c4ccccc4)cc3)cc2)o1)C(=O)O [Example 128, 3-(5-(4-Biphenyl-4-ylcarboxamidophenyl)oxazol-2-yl)-2,2-dimethylpropanoic acid] | + (20-50% Inhibition)

Same assay, conditions: read-out: Percentage inhibition of hDGAT1

Row | Compound | inhibition at 1 µM [%]
5 | CC(C)(CC(=O)O)Cc1ncc(-c2ccc(NC(=O)Nc3cccc(C(F)(F)F)c3)cc2)s1 [Example 69, 3,3-Dimethyl-4-(5-(4-(3-(3-(trifluoromethyl)phenyl)ureido)phenyl)thiazol-2-yl)butanoic acid] | > 50
6 | CC(C)(CC(=O)O)Cc1ncc(-c2ccc(NC(=O)Nc3ccccc3Cl)cc2)s1 [Example 71, 4-(5-(4-(3-(2-Chlorophenyl)ureido)phenyl)thiazol-2-yl)-3,3-dimethyl butanoic acid] | > 50
7 | CC(C)(CC(=O)O)Cc1ncc(-c2ccc(NC(=O)Nc3ccc(Cl)cc3Oc3ccccc3)cc2)s1 [Example 73, 4-(5-(4-(3-(4-Chloro-2-phenoxyphenyl)ureido)phenyl)thiazol-2-yl)-3,3-dimethyl butanoic acid] | > 50
8 | CC(C)(CC(=O)O)Cc1ncc(-c2ccc(NC(=O)c3ccc(C(C)(C)C)cc3)cc2)s1 [Example 75, 4-(5-(4-(4-tert-Butylbenzamido)phenyl)thiazol-2-yl)-3,3-dimethylbutanoic acid] | > 50
9 | CCCCCc1ccc(C(=O)Nc2ccc(-c3cnc(CC(C)(C)CC(=O)O)s3)cc2)cc1 [Example 79, 3,3-Dimethyl-4-(5-(4-(4-pentylbenzamido)phenyl)thiazol-2-yl)butanoic acid] | > 50
10 | COc1ccc(S(=O)(=O)Nc2ccc(-c3cnc(CC(C)(C)CC(=O)O)s3)cc2)c(OC)c1 [Example 81, 4-(5-(4-(2,4-Dimethoxyphenylsulfonamido)phenyl)thiazol-2-yl)-3,3-dimethylbutanoic acid] | 20 to 50
11 | CC(C)(CCc1ncc(-c2ccc(NC(=O)Nc3cccc(C(F)(F)F)c3)cc2)s1)C(=O)O [Example 88, 2,2-Dimethyl-4-(5-(4-(3-(3-(trifluoromethyl)phenyl)ureido)phenyl)thiazol-2-yl)butanoic acid] | > 50
12 | CC(C)(CCc1ncc(-c2ccc(NC(=O)Nc3ccccc3Cl)cc2)s1)C(=O)O [Example 90, 4-(5-(4-(3-(2-Chlorophenyl)ureido)phenyl)thiazol-2-yl)-2,2-dimethylbutanoic acid] | > 50
13 | CC(C)(CCc1ncc(-c2ccc(NC(=O)Nc3ccc(Cl)cc3Oc3ccccc3)cc2)s1)C(=O)O [Example 92, 4-(5-(4-(3-(4-Chloro-2-phenoxyphenyl)ureido)phenyl)thiazol-2-yl)-2,2-dimethylbutanoic acid] | > 50
14 | CC(C)(CCc1ncc(-c2ccc(NC(=O)NC3CCCCC3)cc2)s1)C(=O)O [Example 94, 4-(5-(4-(3-Cyclohexylureido)phenyl)thiazol-2-yl)-2,2-dimethyl butanoic acid] | > 50
15 | COc1ccc(NC(=O)Nc2ccc(-c3cnc(CCC(C)(C)C(=O)O)s3)cc2)cc1 [Example 98, 4-(5-(4-(3-(4-Methoxyphenyl)ureido)phenyl)thiazol-2-yl)-2,2-dimethyl butanoic acid] | > 50
16 | CC(C)(CCc1ncc(-c2ccc(NC(=O)c3ccc(C(C)(C)C)cc3)cc2)s1)C(=O)O [Example 106, 4-(5-(4-(4-tert-Butylbenzamido)phenyl)thiazol-2-yl)-2,2-dimethylbutanoic acid] | > 50
17 | CC(C)(Cc1ncc(-c2ccc(NC(=O)Nc3ccc(Cl)cc3Oc3ccccc3)cc2)o1)C(=O)O [Example 124, 3-(5-(4-(3-(4-Chloro-2-phenoxyphenyl)ureido)phenyl)oxazol-2-yl)-2,2-dimethyl propanoic acid] | > 50
18 | O=C(Nc1ccc(-c2cnc(C3CCC(C(=O)O)CC3)s2)cc1)Nc1cccc(C(F)(F)F)c1 (stereo not shown) [Example 134, 4-(5-(4-(3-(3-(Trifluoromethyl)phenyl)ureido)phenyl)thiazol-2-yl)cyclohexane carboxylic acid] | > 50
19 | Cc1ccc(NC(=O)Nc2ccc(-c3cnc(C4CCC(C(=O)O)CC4)s3)cc2)cc1 (stereo not shown) [Example 136, 4-(5-(4-(3-p-Tolylureido)phenyl)thiazol-2-yl)cyclohexanecarboxylic acid] | > 50
20 | O=C(Nc1ccc(-c2cnc(C3CCC(C(=O)O)CC3)s2)cc1)Nc1ccc(F)cc1F (stereo not shown) [Example 138, 4-(5-(4-(3-(2,4-Difluorophenyl)ureido)phenyl)thiazol-2-yl)cyclohexane carboxylic acid] | > 50
21 | O=C(Nc1ccc(-c2cnc(C3CCC(C(=O)O)CC3)s2)cc1)Nc1ccccc1F (stereo not shown) [Example 140, 4-(5-(4-(3-(2-Fluorophenyl)ureido)phenyl)thiazol-2-yl)cyclohexanecarboxylic acid] | > 50
22 | O=C(Nc1ccc(-c2cnc(C3CCC(C(=O)O)CC3)s2)cc1)NC1CCCCC1 (stereo not shown) [Example 142, 4-(5-(4-(3-Cyclohexylureido)phenyl)thiazol-2-yl)cyclohexanecarboxylic acid] | > 50
23 | O=C(Nc1ccc(-c2cnc(C3CCC(C(=O)O)CC3)s2)cc1)Nc1cccc(Cl)c1 (stereo not shown) [Example 144, 4-(5-(4-(3-(3-Chlorophenyl)ureido)phenyl)thiazol-2-yl)cyclohexane carboxylic acid] | > 50
24 | O=C(Nc1ccc(Cl)cc1)Nc1ccc(-c2cnc(C3CCC(C(=O)O)CC3)s2)cc1 (stereo not shown) [Example 146, 4-(5-(4-(3-(4-Chlorophenyl)ureido)phenyl)thiazol-2-yl)cyclohexane carboxylic acid] | > 50
25 | O=C(Nc1ccc(-c2cnc(C3CCC(C(=O)O)CC3)s2)cc1)Nc1ccc(C(F)(F)F)cc1Cl (stereo not shown) [Example 148, 4-(5-(4-(3-(2-Chloro-4-(trifluoromethyl)phenyl)ureido)phenyl)thiazol-2-yl)cyclohexanecarboxylic acid] | > 50
